From publication PMC12308784, “Organometallic Half-Sandwich Complexes of 1,10-Phenanthroline Derivatives with Improved Solubility, Albumin-Binding, and Nanoformulation Potential Targeting Drug Resistance in Cancer” (Inorganic Chemistry, 2025)
Like-named read-outs stand apart in the source and are kept apart here. Marks after values point to notes of the source that are not given here.

Columns and labels:
[1] = biological target: T1, human serum albumin (HSA), Trp-214 in Sudlow’s site I (Homo sapiens, UniProt P02768); details: cited from earlier work; for logK Q′ (quenching constant): organometallic precursors, PBS’, t = 25 °C
T1 construct: purchased Sigma-Aldrich A8763
T1 sequence (P02768 25-609): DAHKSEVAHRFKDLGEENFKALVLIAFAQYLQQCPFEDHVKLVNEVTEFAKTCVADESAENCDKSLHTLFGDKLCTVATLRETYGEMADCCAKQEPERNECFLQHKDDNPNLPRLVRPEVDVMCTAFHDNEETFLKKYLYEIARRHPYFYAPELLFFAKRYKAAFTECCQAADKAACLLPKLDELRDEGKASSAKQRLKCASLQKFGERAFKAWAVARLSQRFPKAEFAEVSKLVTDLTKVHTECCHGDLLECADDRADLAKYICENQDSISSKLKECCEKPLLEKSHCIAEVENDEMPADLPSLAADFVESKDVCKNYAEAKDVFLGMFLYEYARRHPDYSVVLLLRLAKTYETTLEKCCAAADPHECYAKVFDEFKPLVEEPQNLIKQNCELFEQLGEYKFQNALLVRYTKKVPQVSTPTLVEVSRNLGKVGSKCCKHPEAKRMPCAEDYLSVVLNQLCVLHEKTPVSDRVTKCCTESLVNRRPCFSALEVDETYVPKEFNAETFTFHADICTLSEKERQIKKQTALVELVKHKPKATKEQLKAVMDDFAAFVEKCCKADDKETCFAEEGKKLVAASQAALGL

MCF-7 = assay: PrestoBlue cytotoxicity assay; type: cell-based
Method: (§1) MDA-MB-231 breast adenocarcinoma and MCF-7 and T-47D invasive breast carcinomas were purchased from the Developmental Therapeutic Program of the National Cancer Institute (NIH, USA), and they were cultured in RPMI medium (Thermo Fisher). MES–SA and MES–SA/Dx5 uterine sarcoma cell lines were purchased from American Type Culture Collection and were kept in DMEM (Thermo Fisher). MES–SA/B1 was created by the transfection of the human MDR1 gene in MES–SA, and MES–SA mCherry, MES–SA/B1 mOrange, and MES–SA/Dx5 eGFP were engineered to stably express the respective fluorescent proteins, as described previously. Culture media were supplemented with 10% fetal bovine serum, 2 mM L-glutamine, 100 units/mL penicillin, and 100 μg/mL streptomycin (Thermo Fisher). Cells were kept at 37 °C under 5% CO2 and were negative for mycoplasma infection.
(§2) Cytotoxicity of the nonfluorescent cancer cells (MDA-MB-231, MCF-7, T-47D) were assessed with PrestoBlue cell viability reagent (Thermo Fisher). Briefly, 2500 cells/well were seeded on 384-well plates, and then the next day drugs were added. After 72 h incubation, PrestoBlue was added in a 10% final concentration, and after an hour of additional incubation, plates were measured with a PerkinElmer EnSpire plate reader at 555 nm/585 nm excitation/emission wavelengths. Fluorescent cells (MES-SA mCherry, MES-SA/B1 mOrange, MES-SA/Dx5 eGFP) were admixed before seeding on 384-well plates at 800 cells/well density each, thus altogether 2400 cells/well. Drugs were added the following day, and the intensity of the fluorescent proteins were measured after 144 h incubation at the respective fluorescent channels (excitation/emission: eGFP: 485 nm/510 nm; mCherry: 585 nm/610 nm; mOrange: 545 nm/567 nm). pIC50 values were calculated by a custom program written by Judit Sessler in C#. IC50 values and standard deviation were calculated from average pIC50 values from at least 3 independent measurements. Since the IC50 values were obtained through nonlinear regression fitting of the viability vs. log(concentration) data, the resulting confidence intervals are inherently asymmetric (see pIC50 values and their corresponding SD in Tables S5 and S6).

MDA-MB-231 = assay: PrestoBlue cytotoxicity assay; type: cell-based
Method: as §1, §2

T47D = assay: PrestoBlue cytotoxicity assay; type: cell-based
Method: as §1, §2

[2] = system: MDA-MB-231, MCF-7 and T-47D breast cancer cell lines; assay: PrestoBlue cytotoxicity, range over the three breast cancer lines; type: cell-based; details: MDA-MB-231, MCF-7, T-47D; 72 h
Method: The PHEN-derived ligands (DCP, BP) (together with PHEN for comparison) and the isolated complexes ([RuCym(DCP)-Cl]-Cl, [RhCp*(DCP)-Cl]-Cl, [RuCym(BP)-Cl]-Cl, [RhCp*(BP)-Cl]-Cl) were tested against the estrogen receptor (ER) negative MDA-MB-231, and the ER positive MCF-7 and T-47D breast cancer cell lines (Table , and Figure a for easier comparison).
as §1
as §2, with “measurements.” for “measurements. Since the IC50 values were obtained through nonlinear regression fitting of the viability vs. log(concentration) data, the resulting confidence intervals are inherently asymmetric (see pIC50 values and their corresponding SD in Tables S5 and S6).”

MES-SA mCherry = assay: fluorescent triple coculture cytotoxicity assay; type: cell-based, human; details: 384-well plate
Excerpt: (§3) Cytotoxicity of the compounds were further tested also in an in vitro MDR model system, consisting of an MES-SA uterine sarcoma cell line, and its P-gp (ABCB1) overexpressing variants MES-SA/B1, that was genetically engineered to express P-gp, and MES-SA/Dx5, which acquired a P-gp-mediated MDR phenotype due to selection in doxorubicin. , The expression of different fluorescent proteins in each line (mCherry, mOrange, or eGFP) allowed coculturing of these three cell lines, providing more relevant data compared to monocultures, as the interaction between parental and resistant phenotypes is reflected in cytotoxicity.
(§4) Cytotoxicity of nanoformulated [RhCp*(BP)-Cl]-Cl with cross-linked HSA and HTP carriers was tested against the previously introduced triple coculture of fluorescent MES-SA cells with a slight difference. Namely, the media containing the dissolved products were removed from the wells, and fresh media was added prior to the measurement as the presence of cross-linked HSA and HTP formulations interfered with the fluorescence of the cells.
as §1
as §2, with “Fluorescent cells (MES-SA mCherry, MES-SA/B1 mOrange, MES-SA/Dx5 eGFP) were admixed before seeding on 384-well plates at 800 cells/well density each, thus altogether 2400 cells/well.” left out

MES-SA/B1-mOrange = assay: fluorescent triple coculture cytotoxicity assay; type: cell-based, human; details: 384-well plate; for SR (MES-SA/B1): selectivity ratio versus parental MES-SA
Excerpt: as §3, §4, §1
as §2, with “Fluorescent cells (MES-SA mCherry, MES-SA/B1 mOrange, MES-SA/Dx5 eGFP) were admixed before seeding on 384-well plates at 800 cells/well density each, thus altogether 2400 cells/well.” left out

MES-SA/Dx5-eGFP = assay: fluorescent triple coculture cytotoxicity assay; type: cell-based, human; details: 384-well plate; for SR (MES-SA/Dx5): selectivity ratio versus parental MES-SA
Excerpt: as §3, §4, §1
as §2, with “Fluorescent cells (MES-SA mCherry, MES-SA/B1 mOrange, MES-SA/Dx5 eGFP) were admixed before seeding on 384-well plates at 800 cells/well density each, thus altogether 2400 cells/well.” left out

[3] = biological target: T2, HSA Sudlow’s site I (IIA subdomain) (Homo sapiens, UniProt P02768); details: organometallic precursors; PBS’; t = 25 °C; ref footnote a (ref 56); cited from earlier work
T2 construct: purchased Sigma-Aldrich A8763
T2 sequence (P02768 25-609): as above

[4] = Homo sapiens, 72 h, 384-well plate, read-out: IC50
[5] = Homo sapiens, Table S5, read-out: pIC50 (mean) (converted)
[6] = Homo sapiens, MES-SA, 144 h, MES-SA mCherry, coculture, 144 h, read-out: IC50
[7] = Homo sapiens, MES-SA, Mes-Sa mCherry, Table S6, read-out: pIC50 (mean) (converted)
[8] = MES-SA mCherry, coculture, 144 h, read-out: IC50
[9] = Homo sapiens, MES-SA/B1-mOrange, coculture, 144 h, read-out: IC50
[10] = Homo sapiens, Mes-Sa/B1 mOrange, Table S6, read-out: pIC50 (mean) (converted)
[11] = Homo sapiens, MES-SA/Dx5-eGFP, coculture, 144 h, read-out: IC50
[12] = Homo sapiens, Mes-Sa/Dx5 eGFP, Table S6, read-out: pIC50 (mean) (converted)
[13] = 72 h, 384-well plate, read-out: IC50

| Molecule | IC50 [2] [µM] | IC50 (MES-SA mCherry; [6]) [µM] | IC50 (MES-SA mCherry; [7]) [µM] | IC50 (MES-SA mCherry; [8]) [µM] | IC50 (MES-SA/B1-mOrange; [9]) [µM] | IC50 (MES-SA/B1-mOrange; [10]) [µM] | SR (MES-SA/B1) (MES-SA/B1-mOrange) | IC50 (MES-SA/Dx5-eGFP; [11]) [µM] | IC50 (MES-SA/Dx5-eGFP; [12]) [µM] | SR (MES-SA/Dx5) (MES-SA/Dx5-eGFP) | logK Q′ (quenching constant) [1] | logK WF′ (WF displacement constant) [3] | other results |
| --- | --- | --- | --- | --- | --- | --- | --- | --- | --- | --- | --- | --- | --- |
| [Ru].c1cnc2c(c1)ccc1cccnc12.c1cnc2c(c1)ccc1cccnc12.c1cnc2c(c1)ccc1cccnc12 [[Ru(PHEN)3]^2+] | – | – | – | – | – | – | – | – | – | – | – | – | interaction with HSA ([1]; ref number not given): negligible interaction |
| c1cnc2c(c1)ccc1cccnc12 [PHEN, 1,10-phenanthroline] | 3.2 to 8.6 | 3 | 2.95 | 2.95 | 1.39 | 1.38 | 2.1 | 0.41 | 0.417 | 7.1 | – | – | IC50 (MCF-7; Homo sapiens, MCF7, 72 h, 384-well plate, read-out: IC50): 8.57 µM; IC50 (MCF-7; Homo sapiens, MCF7, Table S5, read-out: pIC50 (mean) (converted)): 8.51 µM; IC50 (MDA-MB-231; [4]): 3.2 µM; IC50 (MDA-MB-231; [5]): 3.16 µM; IC50 (T47D; [4]): 5.47 µM; IC50 (T47D; [5]): 5.5 µM |
| N.N.[Cl][Pt][Cl] [cisplatin] | 3.2 to 7 | – | – | 1.49 | – | – | 0.9 | – | – | 0.3 | – | – | IC50 (MCF-7; [13]): 4.78 µM; pIC50 (mean) (MCF-7; Table S5): 5.32; IC50 (MDA-MB-231; [13]): 3.16 µM; pIC50 (mean) (MDA-MB-231; Table S5): 5.50; IC50 (T47D; [13]): 6.98 µM; pIC50 (mean) (T47D; Table S5): 5.16; pIC50 (mean) (MES-SA mCherry; Mes-Sa mCherry, Table S6): 5.83; IC50 (MES-SA/B1-mOrange; MES-SA/B1-mOrange, coculture, 144 h, read-out: IC50): 1.71 µM; pIC50 (mean) (MES-SA/B1-mOrange; Mes-Sa/B1 mOrange, Table S6): 5.77; IC50 (MES-SA/Dx5-eGFP; MES-SA/Dx5-eGFP, coculture, 144 h, read-out: IC50): 4.28 µM; pIC50 (mean) (MES-SA/Dx5-eGFP; Mes-Sa/Dx5 eGFP, Table S6): 5.37 |
| COc1cc([C@@H]2c3cc4c(cc3[C@@H](O[C@@H]3O[C@@H]5CO[C@@H](C)O[C@H]5[C@H](O)[C@H]3O)[C@H]3COC(=O)[C@H]23)OCO4)cc(OC)c1O [etoposide] | – | 0.2 | 0.2 | – | 1.19 | 1.17 | 0.2 | 2.08 | 2.09 | 0.1 | – | – | resistance of MES-SA/B1 versus parental line (MES-SA/B1-mOrange; coculture): 6 fold; resistance of MES-SA/Dx5 versus parental line (MES-SA/Dx5-eGFP; coculture): 10 fold |
| [Rh(η^5-C5Me5)Cl2]2 [RhCp*precursor] | – | – | – | – | – | – | – | – | – | – | 5.8 ^a | 6.1 ^a | logK Q′ (quenching constant) ([1]; listed as precursor RhCp*): 5.8 |
| [Ru(η^6-p-cymene)Cl2]2 [RuCym precursor] | – | – | – | – | – | – | – | – | – | – | 5.7 ^a | 5.9 ^a | – |
